In US12329766B2, “Compounds, methods, and treatments for abnormal signaling pathways for prenatal and postnatal development” (priority 2006, dated 2025):

Columns and labels:
curly tail model = conditions: cited from earlier work
[1] = Example 4: men on androgen ablative therapy, male breast cancer; assay type: in vivo; conditions: prior to and throughout androgen ablative therapy; compared to controls
Text: Men preparing to initiate androgen ablative therapy are initiated on a course of D-chiroinositol prior to and throughout the treatment with the androgen ablative therapeutic.

[2] = Example 7: fetal alcohol syndrome related defects in offspring of alcohol treated rats; assay type: in vivo; conditions: given before and during the alcohol treatment; versus inositol free alcohol treated group
Procedure: Female rats are administered alcohol for 2 weeks and then mated. The alcohol administration continues through out pregnancy and the rate of fetal alcohol syndrome related defects in the offspring are noted. A second set of rats from the same strain are mated without having the alcohol treatment as a control and the rate of defects of the same type as noted in the first arm are noted. […] A third arm of the study includes rats that are administered D-chiroinositol or a phosphorylate thereof before and during the alcohol treatment and are otherwise treated in the same manner as in the alcohol treatment above.

[3] = system: phosphatidyl inositol (PI3K) signaling pathway; experiment: Example 6: cultured curly tail mice embryos, PNP closure; conditions: embryos cultured from E9.5 to E10.5, in vitro
Procedure: To determine whether the downstream targets of the phosphatidyl inositol (PI3K) signaling pathway could be effected by an inhibitor, we can use […] to inhibit the effect of inositol on neural tube closure. The curly tail mice embryos are cultured from E9.5 to E10.5, and the length of unclosed neural folds at the pnp are measured to indicate predisposition to spina bifida. Embryos which are exposed to the kinase inhibitor alone have enlarged PNP's, reflecting the in vivo development of spinal NTD's by 50%-60% of curly tail embryos.

[4] = Example 2: females at risk of fetal malformations, treatment from before conception through first trimester; assay type: in vivo; conditions: once daily from before conception through the end of the first trimester; relative to the untreated controls
Procedure: Females determined to be at risk of fetal malformations and who are seeking a further pregnancy are split into no treatment, folate treatment, D-chiroinositol treatment, and Folate+D-chiroinositol treatment arms. The respective regimens are administered once daily from before conception through the end of the first trimester. Relative to the untreated controls, the frequency of fetal malformations is reduced in each of the non-control arms.

PKB = conditions: increasing extracellular Ins(1,3,4,5,6)P5; cited from earlier work
PDK1 [5] = target: T1, PDK1 (Homo sapiens, UniProt O15530); conditions: phosphorylation of the PDK tide peptide substrate by PDK1; cited from earlier work
T1 sequence (O15530 1-556): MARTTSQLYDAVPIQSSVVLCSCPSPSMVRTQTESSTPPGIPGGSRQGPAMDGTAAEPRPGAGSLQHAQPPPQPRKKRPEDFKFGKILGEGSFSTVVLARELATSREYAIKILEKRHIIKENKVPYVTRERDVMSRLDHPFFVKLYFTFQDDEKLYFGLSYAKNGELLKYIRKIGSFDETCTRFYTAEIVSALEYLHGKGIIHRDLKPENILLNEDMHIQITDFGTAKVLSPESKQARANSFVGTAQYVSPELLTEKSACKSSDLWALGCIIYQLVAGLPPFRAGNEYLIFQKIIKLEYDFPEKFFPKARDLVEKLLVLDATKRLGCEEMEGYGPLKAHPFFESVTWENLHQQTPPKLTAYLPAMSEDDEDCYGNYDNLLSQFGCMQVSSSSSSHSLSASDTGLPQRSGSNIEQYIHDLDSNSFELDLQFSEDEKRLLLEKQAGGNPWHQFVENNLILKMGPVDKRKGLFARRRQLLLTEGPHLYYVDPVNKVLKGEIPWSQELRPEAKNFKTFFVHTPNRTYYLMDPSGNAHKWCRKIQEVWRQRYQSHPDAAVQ

PDK1 [6] = target: T1, PDK1; conditions: cited from earlier work
hedgehog signaling = conditions: cultured neonatal mouse ovaries; cited from earlier work
Shh signaling [7] = conditions: explants from mice at 13.5 days of gestation, six to eight days in culture; cited from earlier work
amyloid β deposits = conditions: in vivo; cited from earlier work
[8] = China 1993 to 1995; 3.1 per 10,000 births for those not taking folic acid; cited from earlier work
[9] = taken before conception and during early pregnancy; cited from earlier work
Shh signaling [10] = experiment: Example 5: curly tail mice embryos, spinal and genitourinary defects; assay type: in vivo; conditions: D-chiroinositol vs. myoinositol
Procedure: These embryos are exposed to the present invention compound D-chiroinositol vs. myoinositol and internal examination is conducted.

MDA-MB 231 cells = conditions: cited from earlier work
PDAC cells = conditions: in vitro; cited from earlier work
[11] = system: Colo357, BxPc3, or PancTuI tumors; design: reduction of metastasis / reduction of the number of liver metastases / reduction of volumes of recurrent tumors: concentration or dose not given beside the values; conditions: cited from earlier work; for reduction of the number of liver metastases / reduction of volumes of recurrent tumors: mouse, in vivo
[12] = severe combined immunodeficient mice, orthotopic tumors

Compound: O[C@H]1[C@H](O)[C@H](O)[C@@H](O)[C@@H](O)[C@H]1O [D-chiroinositol, D-chiro-inositol]
- frequency of spina bifida (curly tail model; curly tail model, compound alone): reduced frequency of spina bifida in this model to a greater extent than myo-inositol alone
- frequency of male breast cancer [1]: substantially reduced
- rate of fetal alcohol syndrome defects [2]: substantially less
- PNP closure [3]: normalizes PNP closure
- frequency of fetal malformations [4]: reduced

Compound: O=P(O)(O)OC1[C@@H](OP(=O)(O)O)[C@H](OP(=O)(O)O)C(O)[C@H](OP(=O)(O)O)[C@H]1OP(=O)(O)O (stereo partly shown) [Ins(1,3,4,5,6)P5]
- PKB activation in cells (PKB): lowered PKB activation
- direct inhibition of PDK1 catalytic activity (PDK1 [5]): did not directly inhibit

Compound: O=P(O)(O)O[C@@H]1[C@H](O)[C@H](O)[C@@H](OP(=O)(O)O)[C@H](OP(=O)(O)O)[C@H]1O [Ins(1,4,5)P3]
- binding to PDK1 (PDK1 [6]): could not be detected

Compound: O=P(O)(O)O[C@H]1[C@H](OP(=O)(O)O)[C@@H](OP(=O)(O)O)[C@H](OP(=O)(O)O)[C@@H](OP(=O)(O)O)[C@H]1OP(=O)(O)O [InsP6]
- direct inhibition of PDK1 catalytic activity (PDK1 [5]): did not directly inhibit

Compound: CC1=C2C[C@H]3[C@@H](CC=C4C[C@@H](O)CC[C@@]43C)[C@@H]2CC[C@]12O[C@@H]1C[C@H](C)CN[C@H]1[C@H]2C [cyclopamine]
- induced expression of hedgehog target genes Ptch1 and Gli1 (hedgehog signaling): inhibits this induced expression of target genes
- morphogenesis of vibrissa follicles (Shh signaling [7]): striking inhibition of morphogenesis

Compound: OC1C(O)C(O)C(O)C(O)C1O (stereo not drawn) [epi-inositol]
- efficacy in Alzheimer's disease (amyloid β deposits, cognitive ability) (amyloid β deposits): only worked at all when given before disease onset

Compound: Nc1nc(O)c2nc(CNc3ccc(C(=O)N[C@@H](CCC(=O)O)C(=O)O)cc3)cnc2n1 [folic acid]
- rate of imperforate anus [8]: 1.6 per 10,000 births
- reduction of the risk of the fetus developing a neural tube defect [9]: about 70%
- frequency of fetal malformations [4]: reduced

Compound: O[C@H]1[C@H](O)[C@@H](O)[C@H](O)[C@@H](O)[C@H]1O [myo-inositol]
- incidence of neural tube defects (curly tail model; mouse models that are folate resistant): reduced the incidence of neural tube defects
- efficacy in Alzheimer's disease (amyloid β deposits, cognitive ability) (amyloid β deposits): not to be effective
- severity of spinal and genitourinary defects in embryos (Shh signaling [10]): severe compared to those embryos treated with D-chiroinositol

Compound: O=P(O)(O)O[C@H]1[C@H](OP(=O)(O)O)[C@@H](OP(=O)(O)O)[C@H](OP(=O)(O)O)[C@@H](OP(=O)(O)O)[C@H]1OP(=O)(O)O [myoinositol hexaphosphate]
- secretion of MMP-9 (MDA-MB 231 cells): significantly inhibits

Compound: O[C@H]1[C@H](O)[C@@H](O)[C@H](O)[C@@H](O)[C@@H]1O [scyllo-inositol]
- efficacy in Alzheimer's disease (amyloid β deposits, cognitive ability) (amyloid β deposits): prevent the accumulation of amyloid β deposits and improved cognitive ability

Compound: etanercept
- effect on proliferation and invasiveness of PDAC cells (PDAC cells): only marginally affected
- reduction of the number of liver metastases [11]: 42%
- reduction of volumes of recurrent tumors [11]: 51%

Compound: infliximab: human-specific anti-TNF antibody
- effect on proliferation and invasiveness of PDAC cells (PDAC cells): only marginally affected
- reduction of the number of liver metastases [11]: 69%
- reduction of volumes of recurrent tumors [11]: 73%
- reduction of metastasis [11, 12]: ~50%
- reduction of tumor growth [11, 12]: about 30%
